Results from US11053256B2, “Dihydropyranopyrimidines for the treatment of viral infections” (Janssen Sciences Ireland Unlimited Company, priority 2016, dated 2021).

Assays:
[1] = molecular target: T1, human TLR8 (Homo sapiens, UniProt Q9NR97); test: Human TLR8 cellular reporter assay (HEK293, NFkB-luc); assay type: cell-based; conditions: HEK293 cells transiently transfected with TLR8 and NFkB-luc; 6 hours incubation; lowest effective concentration
T1 construct: expressed in transfected cells; host or cells: HEK293
T1 sequence (Q9NR97 27-1041): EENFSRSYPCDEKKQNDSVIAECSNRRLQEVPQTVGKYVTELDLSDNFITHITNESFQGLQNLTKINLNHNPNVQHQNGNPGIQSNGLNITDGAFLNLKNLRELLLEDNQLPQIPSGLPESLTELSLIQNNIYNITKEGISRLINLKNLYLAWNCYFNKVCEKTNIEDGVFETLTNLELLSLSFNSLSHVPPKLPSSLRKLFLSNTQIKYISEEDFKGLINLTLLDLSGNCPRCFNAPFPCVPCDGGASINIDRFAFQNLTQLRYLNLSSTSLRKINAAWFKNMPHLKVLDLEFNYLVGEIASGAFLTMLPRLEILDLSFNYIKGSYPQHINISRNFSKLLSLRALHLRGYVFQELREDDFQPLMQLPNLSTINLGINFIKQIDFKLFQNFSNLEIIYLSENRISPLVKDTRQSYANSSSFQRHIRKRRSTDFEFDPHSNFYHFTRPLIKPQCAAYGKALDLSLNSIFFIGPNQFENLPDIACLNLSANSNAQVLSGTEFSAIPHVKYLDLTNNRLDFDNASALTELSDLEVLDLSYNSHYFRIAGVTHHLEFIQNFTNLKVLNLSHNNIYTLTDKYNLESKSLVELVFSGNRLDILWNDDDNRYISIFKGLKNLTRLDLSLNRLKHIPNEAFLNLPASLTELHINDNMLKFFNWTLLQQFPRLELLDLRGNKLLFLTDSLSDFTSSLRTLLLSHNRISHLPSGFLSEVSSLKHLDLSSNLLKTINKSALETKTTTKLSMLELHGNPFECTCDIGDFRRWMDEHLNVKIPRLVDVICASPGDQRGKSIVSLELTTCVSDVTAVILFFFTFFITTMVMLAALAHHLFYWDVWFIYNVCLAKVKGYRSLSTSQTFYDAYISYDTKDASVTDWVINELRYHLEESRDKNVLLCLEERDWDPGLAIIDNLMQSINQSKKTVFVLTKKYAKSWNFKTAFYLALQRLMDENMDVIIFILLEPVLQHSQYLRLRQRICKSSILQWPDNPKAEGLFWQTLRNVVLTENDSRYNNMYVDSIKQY
Experimental: (§1) Assessment of human TLR7 and human TLR8 activity. The ability of compounds to activate human TLR7 and/or TLR8 was assessed in a cellular reporter assay using HEK293 cells transiently transfected with a TLR7 or TLR8 expression vector and NFkB-luc reporter construct.
(§2) Briefly, HEK293 cells were grown in culture medium (DMEM supplemented with 10% FCS and 2 mM glutamine). For transfection of cells in 15 cm dishes, cells were detached with Trypsin-EDTA, transfected with a mix of CMV-TLR7 or TLR8 plasmid (1700 ng), NFkB-luc plasmid (850 ng) and a transfection reagent and incubated for 48 h at 37° C. in a humidified 5% CO2 atmosphere. Transfected cells were then washed in PBS, detached with Trypsin-EDTA and resuspended in medium to a density of 1.25×10^5 cells/mL. Forty microliters of cells were then dispensed into each well in 384-well plates, where 200 nL of compound in 100% DMSO was already present. Following 6 hours incubation at 37° C., 5% CO2, the luciferase activity was determined by adding 15 μL of Steady Lite Plus substrate (Perkin Elmer) to each well and readout performed on a ViewLux ultraHTS microplate imager (Perkin Elmer). Dose response curves were generated from measurements performed in quadruplicates. Lowest effective concentrations (LEC) values, defined as the concentration that induces an effect which is at least two fold above the standard deviation of the assay, were determined for each compound.

[2] = molecular target: T2, human TLR7 (Homo sapiens, UniProt Q9NYK1); test: Human TLR7 cellular reporter assay (HEK293, NFkB-luc); assay type: cell-based; conditions: HEK293 cells transiently transfected with TLR7 and NFkB-luc; 6 hours incubation; lowest effective concentration
T2 construct: expressed in transfected cells; host or cells: HEK293
T2 sequence (Q9NYK1 27-1049): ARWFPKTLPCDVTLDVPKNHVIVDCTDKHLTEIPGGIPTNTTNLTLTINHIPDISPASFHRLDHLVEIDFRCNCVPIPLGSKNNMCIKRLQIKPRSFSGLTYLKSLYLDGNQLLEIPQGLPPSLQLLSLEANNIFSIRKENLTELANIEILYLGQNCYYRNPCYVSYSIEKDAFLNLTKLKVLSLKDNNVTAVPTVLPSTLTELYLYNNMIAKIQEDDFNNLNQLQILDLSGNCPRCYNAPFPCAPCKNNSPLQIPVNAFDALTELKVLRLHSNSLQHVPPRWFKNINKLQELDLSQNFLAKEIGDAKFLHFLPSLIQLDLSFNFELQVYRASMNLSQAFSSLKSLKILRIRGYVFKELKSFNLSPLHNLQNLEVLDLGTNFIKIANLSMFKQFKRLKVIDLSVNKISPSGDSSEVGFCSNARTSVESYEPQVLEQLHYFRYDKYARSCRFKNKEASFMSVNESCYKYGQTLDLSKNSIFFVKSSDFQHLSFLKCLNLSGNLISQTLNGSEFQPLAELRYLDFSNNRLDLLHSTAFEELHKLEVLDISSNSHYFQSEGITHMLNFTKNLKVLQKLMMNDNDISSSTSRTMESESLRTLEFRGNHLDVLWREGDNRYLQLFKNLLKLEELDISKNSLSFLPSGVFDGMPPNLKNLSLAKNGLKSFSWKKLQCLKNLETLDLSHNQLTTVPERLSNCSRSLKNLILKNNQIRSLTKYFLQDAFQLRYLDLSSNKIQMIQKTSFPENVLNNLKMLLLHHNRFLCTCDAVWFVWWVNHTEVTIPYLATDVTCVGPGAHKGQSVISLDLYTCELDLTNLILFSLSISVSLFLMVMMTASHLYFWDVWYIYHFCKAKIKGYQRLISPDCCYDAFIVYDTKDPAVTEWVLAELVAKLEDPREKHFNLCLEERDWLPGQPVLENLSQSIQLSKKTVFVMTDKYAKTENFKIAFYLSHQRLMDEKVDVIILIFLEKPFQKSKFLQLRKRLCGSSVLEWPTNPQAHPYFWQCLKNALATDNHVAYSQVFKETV
Experimental: as §1, §2

| Compound | Human TLR 8 (LEC) [1] [µM] | Human TLR 7 (LEC) [2] [µM] |
| --- | --- | --- |
| CCCC[C@H](CO)Nc1nc(N)nc2c1COCC2 [Compound 4, (2R)-2-[(2-amino-7,8-dihydro-5H-pyrano[4,3-d]pyrimidin-4-yl)amino]hexan-1-ol] | 1.3 | >100 |
| CCCCNc1nc(N)nc2c1CCOC2 [Compound 7, N^4-butyl-5,8-dihydro-6H-pyrano[3,4-d]pyrimidine-2,4-diamine] | 0.5 | 4.7 |
| CCCCNc1nc(N)nc2c1COCC2 [Compound 3, N^4-butyl-7,8-dihydro-5H-pyrano[4,3-d]pyrimidine-2,4-diamine] | 1.0 | 14.8 |

More lines, now with the values ahead:

| Human TLR 8 (LEC) [1] [µM] | Human TLR 7 (LEC) [2] [µM] | Compound |
| --- | --- | --- |
| 0.1 | 32.5 | CCCC[C@H](CO)Nc1nc(N)nc2c1OCCC2 [Compound 14, (2R)-2-[(2-amino-7,8-dihydro-6H-pyrano[3,2-d]pyrimidin-4-yl)amino]hexan-1-ol] |
| 1.4 | >100 | CCCC[C@H](CO)Nc1nc(N)nc2c1CCOC2 [Compound 8, (2R)-2-[(2-amino-5,8-dihydro-6H-pyrano[3,4-d]pyrimidin-4-yl)amino]hexan-1-ol] |
| 0.1 | 0.8 | CCCCNc1nc(N)nc2c1OCCC2 [Compound 13, N^4-butyl-7,8-dihydro-6H-pyrano[3,2-d]pyrimidine-2,4-diamine] |
